{"source": "ChEMBL document CHEMBL1629605", "about": "“Effect of a single dose of ritonavir on the pharmacokinetic behavior of elvucitabine, a nucleoside reverse transcriptase inhibitor, administered in healthy volunteers” (Antimicrob Agents Chemother, 2009)", "key": {"Homo sapiens [1]": {"system": "Homo sapiens", "assay": "Peripheral volume of distribution with respect to the bioavailability in human at 20 mg administered under fasting condition", "type": "ADME, organism-based", "conditions": "in vivo"}, "[2]": {"assay": "Terminal half life in human at 20 mg administered under fasting condition presence of 300 mg of ritonavir", "type": "ADME, organism-based", "conditions": "in vivo, read-out: beta t1/2 (converted)"}, "Homo sapiens [3]": {"system": "Homo sapiens", "assay": "Time prior to start absorption at second absorption site in human at 20 mg administered under fasting condition presence of 300 mg of ritonavir", "type": "ADME, organism-based", "conditions": "in vivo"}, "Homo sapiens [4]": {"system": "Homo sapiens", "assay": "Absorption rate constant at first absorption site in human at 20 mg administered under fasting condition", "type": "ADME, organism-based", "conditions": "in vivo"}, "[5]": {"assay": "AUC (0 to 24 hrs) in human at 20 mg administered under fasting condition in presence of 300 mg of ritonavir", "type": "ADME, organism-based", "set-up": "time < 24 hr, dose 20 mg", "conditions": "plasma"}, "[6]": {"assay": "Apparent oral clearance in human at 20 mg administered under fasting condition presence of 300 mg of ritonavir", "type": "ADME, organism-based", "conditions": "in vivo"}, "Homo sapiens [7]": {"system": "Homo sapiens", "assay": "Distributional clearance with respect to the bioavailability in human at 20 mg administered under fasting condition presence of 300 mg of ritonavir", "type": "ADME, organism-based", "conditions": "in vivo"}, "Homo sapiens [8]": {"system": "Homo sapiens", "assay": "Time prior to start absorption at first absorption site in human at 20 mg administered under fasting condition presence of 300 mg of ritonavir", "type": "ADME, organism-based", "conditions": "in vivo"}, "[9]": {"assay": "Tmax in human at 20 mg administered under fasting condition", "type": "ADME, organism-based", "conditions": "in vivo"}, "[10]": {"assay": "Clearance in human at 20 mg administered under fasting condition in presence of 300 mg of ritonavir", "type": "ADME, organism-based", "conditions": "in vivo"}, "[11]": {"assay": "AUC (0 to t) in human at 20 mg administered under fasting condition in presence of 300 mg of ritonavir", "type": "ADME, organism-based", "conditions": "plasma"}, "[12]": {"assay": "Half life in human at 20 mg administered under fasting condition", "type": "ADME, organism-based", "conditions": "in vivo"}, "[13]": {"assay": "Central volume of distribution with respect to the bioavailability in human at 20 mg administered under fasting condition", "type": "ADME, organism-based", "conditions": "in vivo, read-out: Vc/F"}, "[14]": {"assay": "AUC (0 to infinity) in human at 20 mg administered under fasting condition in presence of 300 mg of ritonavir", "type": "ADME, organism-based", "set-up": "dose 20 mg, time infinity", "conditions": "plasma"}, "[15]": {"assay": "Cmax in human at 20 mg administered under fasting condition", "conditions": "in vivo"}, "[16]": {"assay": "Terminal half life in human at 20 mg administered under fasting condition", "type": "ADME, organism-based", "conditions": "in vivo, read-out: beta t1/2 (converted)"}, "Homo sapiens [17]": {"system": "Homo sapiens", "assay": "Distributional clearance with respect to the bioavailability in human at 20 mg administered under fasting condition", "type": "ADME, organism-based", "conditions": "in vivo"}, "[18]": {"assay": "Volume of distribution at steady state with respect to the bioavailability in human at 20 mg administered under fasting condition", "type": "ADME, organism-based", "conditions": "in vivo, read-out: Vss/F"}, "[19]": {"assay": "Apparent oral clearance in human at 20 mg administered under fasting condition", "type": "ADME, organism-based", "conditions": "in vivo"}, "Homo sapiens [20]": {"system": "Homo sapiens", "assay": "Time prior to start absorption at first absorption site in human at 20 mg administered under fasting condition", "type": "ADME, organism-based", "conditions": "in vivo"}, "Homo sapiens [21]": {"system": "Homo sapiens", "assay": "Peripheral volume of distribution with respect to the bioavailability in human at 20 mg administered under fasting condition presence of 300 mg of ritonavir", "type": "ADME, organism-based", "conditions": "in vivo"}, "Homo sapiens [22]": {"system": "Homo sapiens", "assay": "Absorption rate constant at second absorption site in human at 20 mg administered under fasting condition", "type": "ADME, organism-based", "conditions": "in vivo"}, "[23]": {"assay": "AUC (0 to infinity) in human at 20 mg administered under fasting condition", "type": "ADME, organism-based", "set-up": "dose 20 mg, time infinity", "conditions": "plasma"}, "[24]": {"assay": "Volume of distribution at steady state with respect to the bioavailability in human at 20 mg administered under fasting condition presence of 300 mg of ritonavir", "type": "ADME, organism-based", "conditions": "in vivo, read-out: Vss/F"}, "Homo sapiens [25]": {"system": "Homo sapiens", "assay": "Absorption rate constant at second absorption site in human at 20 mg administered under fasting condition presence of 300 mg of ritonavir", "type": "ADME, organism-based", "conditions": "in vivo"}, "clinical": {"assay": "clinical", "conditions": "human, in vivo", "description": "Cmax in human at 20 mg administered under fasting condition in presence of 300 mg of ritonavir"}, "[26]": {"assay": "Clearance in human at 20 mg administered under fasting condition", "type": "ADME, organism-based", "conditions": "in vivo"}, "[27]": {"assay": "AUC (0 to t) in human at 20 mg administered under fasting condition", "type": "ADME, organism-based", "conditions": "plasma"}, "Homo sapiens [28]": {"system": "Homo sapiens", "assay": "Time prior to start absorption at second absorption site in human at 20 mg administered under fasting condition", "type": "ADME, organism-based", "conditions": "in vivo"}, "[29]": {"assay": "AUC (0 to 24 hrs) in human at 20 mg administered under fasting condition", "type": "ADME, organism-based", "set-up": "time < 24 hr, dose 20 mg", "conditions": "plasma"}, "Homo sapiens [30]": {"system": "Homo sapiens", "assay": "Absorption rate constant at first absorption site in human at 20 mg administered under fasting condition presence of 300 mg of ritonavir", "type": "ADME, organism-based", "conditions": "in vivo"}, "[31]": {"assay": "Half life in human at 20 mg administered under fasting condition in presence of 300 mg of ritonavir", "type": "ADME, organism-based", "conditions": "in vivo"}, "[32]": {"assay": "Tmax in human at 20 mg administered under fasting condition in presence of 300 mg of ritonavir", "type": "ADME, organism-based", "conditions": "in vivo"}, "Homo sapiens [33]": {"system": "Homo sapiens", "assay": "Central volume of distribution with respect to the bioavailability in human at 20 mg administered under fasting condition presence of 300 mg of ritonavir", "type": "ADME, organism-based", "conditions": "in vivo"}}}
{"smiles": "Nc1nc(=O)n([C@@H]2C=C[C@H](CO)O2)cc1F", "note": "[ELVUCITABINE]", "values": [{"measurement": "Vp/F", "setting": "Homo sapiens [1]", "value": 703, "unit": "L"}, {"measurement": "half-life", "setting": "[2]", "value": 60.2, "unit": "h"}, {"measurement": "Time", "setting": "Homo sapiens [3]", "value": 3.54, "unit": "h"}, {"measurement": "ka", "setting": "Homo sapiens [4]", "value": 0.183, "unit": "h⁻¹"}, {"measurement": "AUC(0-t) at 24 h", "setting": "[5]", "value": 568, "unit": "ng·h/mL"}, {"measurement": "CL/F", "setting": "[6]", "value": 487, "unit": "mL/min"}, {"measurement": "CLd/F", "setting": "Homo sapiens [7]", "value": 19.3, "unit": "L/h"}, {"measurement": "Time", "setting": "Homo sapiens [8]", "value": 2.96, "unit": "h"}, {"measurement": "Tmax", "setting": "[9]", "value": 3.78, "unit": "h"}, {"measurement": "clearance", "setting": "[10]", "value": 467, "unit": "mL/min"}, {"measurement": "AUC(0-t)", "setting": "[11]", "value": 790, "unit": "ng·h/mL"}, {"measurement": "half-life", "setting": "[12]", "value": 59.1, "unit": "h"}, {"measurement": "Vd/F", "setting": "[13]", "value": 26.1, "unit": "L"}, {"measurement": "AUC(0-inf)", "setting": "[14]", "value": 979, "unit": "ng·h/mL"}, {"measurement": "Cmax", "setting": "[15]", "value": 136, "unit": "ng/mL"}, {"measurement": "half-life", "setting": "[16]", "value": 58.6, "unit": "h"}, {"measurement": "CLd/F", "setting": "Homo sapiens [17]", "value": 16.3, "unit": "L/h"}, {"measurement": "Vd/F", "setting": "[18]", "value": 729, "unit": "L"}, {"measurement": "CL/F", "setting": "[19]", "value": 297, "unit": "mL/min"}, {"measurement": "Time", "setting": "Homo sapiens [20]", "value": 1.6, "unit": "h"}, {"measurement": "Vp/F", "setting": "Homo sapiens [21]", "value": 897, "unit": "L"}, {"measurement": "ka", "setting": "Homo sapiens [22]", "value": 0.459, "unit": "h⁻¹"}, {"measurement": "AUC(0-inf)", "setting": "[23]", "value": 1240, "unit": "ng·h/mL"}, {"measurement": "Vd/F", "setting": "[24]", "value": 921, "unit": "L"}, {"measurement": "ka", "setting": "Homo sapiens [25]", "value": 0.483, "unit": "h⁻¹"}, {"measurement": "Cmax", "setting": "clinical", "value": 102, "unit": "ng/mL"}, {"measurement": "clearance", "setting": "[26]", "value": 293, "unit": "mL/min"}, {"measurement": "AUC(0-t)", "setting": "[27]", "value": 1030, "unit": "ng·h/mL"}, {"measurement": "Time", "setting": "Homo sapiens [28]", "value": 2.3, "unit": "h"}, {"measurement": "AUC(0-t) at 24 h", "setting": "[29]", "value": 732, "unit": "ng·h/mL"}, {"measurement": "ka", "setting": "Homo sapiens [30]", "value": 0.127, "unit": "h⁻¹"}, {"measurement": "half-life", "setting": "[31]", "value": 54.2, "unit": "h"}, {"measurement": "Tmax", "setting": "[32]", "value": 5.12, "unit": "h"}, {"measurement": "Vc/F", "setting": "Homo sapiens [33]", "value": 24.8, "unit": "L"}]}
